Data: paper PMC10663516 (Scientific Reports, 2023)

What was measured:
Tolerability in mice = format: in vivo; conditions: same strain as efficacy studies, 30 mg/kg QD PO, unpublished observations
Protocol: For acalabrutinib, the current clinically recommended oral dose in MCL is 100 mg twice daily (BID)[18],[19], which results in an exposure of 1111 h·ng/mL[18],[19]. There are no published data on the pharmacokinetics of acalabrutinib in mice. The compound was administered at 15 mg/kg BID in mouse xenograft tumor models, giving a total daily dose of 30 mg/kg.

[1] = set-up: method as in PMID 20615965; conditions: mice, oral, 14.2 mg/kg; cited from earlier work
BTK [2] = biological target: T1, BTK (Homo sapiens, UniProt Q06187); assay: Off-Chip mobility shift kinase assay (potency); format: biochemical; set-up: Purified full-length recombinant BTK (Carna Biosciences #08–080); purchased Carna Biosciences 08–080; conditions: 75 µM ATP, 90 min, n = 9
T1 sequence (Q06187 whole entry): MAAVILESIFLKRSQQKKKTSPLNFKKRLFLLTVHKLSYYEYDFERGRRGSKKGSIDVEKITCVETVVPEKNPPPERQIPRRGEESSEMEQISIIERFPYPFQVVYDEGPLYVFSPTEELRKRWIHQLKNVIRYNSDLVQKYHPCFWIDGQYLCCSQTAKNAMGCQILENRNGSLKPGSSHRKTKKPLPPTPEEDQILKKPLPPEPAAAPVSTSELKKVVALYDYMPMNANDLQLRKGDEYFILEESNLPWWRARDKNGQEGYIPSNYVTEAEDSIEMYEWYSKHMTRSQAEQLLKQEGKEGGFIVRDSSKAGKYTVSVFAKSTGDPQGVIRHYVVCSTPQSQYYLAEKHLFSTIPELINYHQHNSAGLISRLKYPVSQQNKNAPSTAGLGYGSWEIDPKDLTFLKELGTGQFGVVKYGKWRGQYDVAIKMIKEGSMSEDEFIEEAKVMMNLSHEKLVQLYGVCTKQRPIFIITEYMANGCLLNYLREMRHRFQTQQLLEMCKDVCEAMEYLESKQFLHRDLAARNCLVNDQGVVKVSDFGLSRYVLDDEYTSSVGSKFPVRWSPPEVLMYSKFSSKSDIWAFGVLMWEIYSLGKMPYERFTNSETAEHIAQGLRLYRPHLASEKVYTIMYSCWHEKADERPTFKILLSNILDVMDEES
Protocol: Purified full-length recombinant BTK (Carna Biosciences #08–080) was diluted in buffer (see Supplementary Material) to a final concentration of 0.05 ng/µL with 75 µM ATP and 1 µM of the peptide FITC-AHA-[…]-NH2 (Tufts Core Facility, Boston, MA, USA) into microtiter plates. TL-895 (0.038–10,000 nM) was added and the samples were incubated at room temperature for 90 min (min) before the addition of stop buffer containing 10 mM ethylenediamine tetra-acetic acid (EDTA; see Supplementary Material). Samples were read on a Caliper LC3000 (Caliper Life Sciences, Waltham, MA, USA) using an Off-Chip mobility shift assay format to measure percentage conversion of substrate to product, from which half maximal inhibitory concentration (IC50)–response curves were generated.
potent second-generation BTK inhibitor, for the treatment of B-cell
Samantha M. Goodstal, Jing Lin, Timothy Crandall, Lindsey Crowley, Andrew T. Bender,
Albertina Pereira, Maria Soloviev, John S. Wesolowski, Riham Iadevaia,
Sven-Eric Schelhorn, Edith Ross, Federica Morandi, Jianguo Ma, Anderson Clark
Kinase assay buffer components
4 mM dithiothreitol (Sigma, D0632)
100 mM 4-(2-hydroxyethyl)-1-piperazineethanesulfonic acid (HEPES) pH 7.5
0.227% Coating Reagent #3 (Caliper Life Sciences)
TL-89 5 lo g c onc ent rati on (M )
Supplementary Figure S1. Inhibition of recombinant human full-length BTK activity by TL-
895 and resulting IC50. […]

A431 and A549 = assay: ADCC induced by anti-PD-L1 or anti-EGFR antibody (51Cr release); format: cell-based, human; conditions: A431 and A549 target cells, PBMC effector cells, 4 h; TL-895 0.05 and 3 µM or 8 nM–25 µM
Protocol: In a second study, ADCC induced by anti-programmed death-ligand 1 (anti-PD-L1) or anti-EGFR antibody was measured using two cultured human tumor cell lines (A431 and A549, target cells; obtained from ATCC). Target cells were stimulated with human interferon-gamma (200 ng/mL) for 48 h to increase surface expression of PD-L1 target protein. Target cell and effector cells (peripheral blood mononuclear cells) were incubated for 4 h with (a) increasing concentrations of antibody (0.2–1000 ng/mL) and TL-895 (0, 0.05 and 3 µM), or (b) a fixed concentration of antibody (20 ng/mL) and increasing concentrations of TL-895 (8 nM–25 µM). ADCC analysis was based on the quantitation of chromium-51 (^51Cr) release during lysis of target cells using […] detection on a MicroBeta2 2450-0060 liquid scintillation and luminescence counter (PerkinElmer, Waltham, MA, USA).

Txk = biological target: T2, Txk (Homo sapiens, UniProt P42681); assay: Millipore Kinase Profiler screening panel, Txk; format: biochemical
T2 construct: purchased EMD Millipore
T2 sequence (P42681 whole entry): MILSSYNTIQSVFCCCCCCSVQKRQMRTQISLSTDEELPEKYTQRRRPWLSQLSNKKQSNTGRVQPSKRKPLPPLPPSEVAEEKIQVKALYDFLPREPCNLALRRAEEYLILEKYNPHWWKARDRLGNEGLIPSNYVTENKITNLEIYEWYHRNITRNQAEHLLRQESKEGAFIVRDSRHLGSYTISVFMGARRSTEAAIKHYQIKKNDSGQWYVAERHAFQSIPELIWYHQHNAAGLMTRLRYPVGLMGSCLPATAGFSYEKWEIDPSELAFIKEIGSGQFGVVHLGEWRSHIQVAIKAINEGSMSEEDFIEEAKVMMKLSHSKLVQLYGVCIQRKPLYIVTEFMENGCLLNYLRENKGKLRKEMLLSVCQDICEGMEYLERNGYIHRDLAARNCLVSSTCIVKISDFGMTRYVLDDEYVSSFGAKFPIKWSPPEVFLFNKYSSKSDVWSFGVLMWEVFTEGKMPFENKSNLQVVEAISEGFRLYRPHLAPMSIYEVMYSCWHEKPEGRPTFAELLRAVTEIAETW
Protocol: (§1) The Kinase Profiler™ screening panel (EMD Millipore, Burlington, MA, USA) was used to test the inhibitory activity of TL-895 against 270 protein kinases. Kinases were incubated with TL-895 (1 µM) for 20 min to 4 h at room temperature, according to standard kinome screen procedures. […]

BTK [3] = biological target: T1, BTK; assay: BTK phosphorylation in Ramos cells after anti-IgM stimulation (ProteinSimple Wes); format: cell-based; set-up: endogenous in cells; host or cells: Ramos Burkitt's lymphoma cells (ATCC CRL-1596)
HBL-1 = assay: Cell viability, ATPlite; format: cell-based, human
Protocol: (§2) The potency of TL-895 effects on cell viability was further examined in vitro in a panel of diffuse large B-cell lymphoma (DLBCL) and MCL cell lines, comprising ten germinal B-cell like subtype (GCB)-DLBCL cell lines, six activated B-cell like (ABC)-DLBCL cell lines, and six MCL cell lines (Horizon Discovery Inc, Cambridge MA, USA). Cells were seeded into 384-well plates (500 cells/well) and incubated (37 °C for 24 h) before treatment with varying concentrations of TL-895 for 72 h. ATP levels were analyzed using the ATPlite Luminescence Assay System (Perkin Elmer, UK). Growth inhibition and maximum response were calculated using the Chalice Analyzer (Horizon Discovery Inc).

SU-DHL-2-epst = assay: Cell viability, ATPlite; format: cell-based, human
Protocol: as §2

OCI-Ly3 = assay: Cell viability, ATPlite; format: cell-based, human
Protocol: as §2

TMD8 = assay: Cell viability, ATPlite; format: cell-based, human
Protocol: as §2

[4] = Cytotoxicity by ATP content (CellTiter-Glo); format: cell-based, human; conditions: human, HepG2 cells
Protocol: (§3) HepG2 cells (human hepatocellular carcinoma [epithelial]) and primary human hepatocytes were cultured in DMEM/F-12 medium supplemented with antibiotics, sodium pyruvate, insulin and 10% fetal calf serum. During the testing steps, the medium was replaced by serum-free media containing bovine serum albumin (BSA) and dexamethasone. All the cultures are incubated at 37 °C in a humidified chamber containing 5% CO2. […] HepG2 and primary hepatocytes were cultured in 96-well tissue culture plates either for luminescence (2E4/well in 100 µL) or pre-coated with collagen I (3.5E4/well in 100 µL, respectively).
(§4) For the cytotoxicity data, the % values relative (%RV) to the vehicle controls were calculated for each dose level. […] The overall EC50s were the averages of the values obtained from each experiment (PRISM® GraphPad™ Software, Boston, MA).

[5] = tested on: primary human hepatocytes; assay: Cytotoxicity by ATP content (CellTiter-Glo); format: cell-based; conditions: hepatocyte EC50 at 24 h
Protocol: as §3, §4

[6] = Cytotoxicity by ATP content (CellTiter-Glo); format: cell-based, human; conditions: primary human hepatocytes, 24 h
Protocol: as §3, §4

BTK [7] = biological target: T1, BTK; assay: Millipore Kinase Profiler screening panel, BTK; format: biochemical; set-up: purchased EMD Millipore; conditions: n = 2
Protocol: as §1

[8] = Homo sapiens, HBL1, HBL-1 (ABC-DLBCL), 72 h
[9] = Homo sapiens, TMD8 (ABC-DLBCL), 72 h

Structure (SMILES): CC#CC(=O)N1CCC[C@H]1c1nc(-c2ccc(C(=O)Nc3ccccn3)cc2)c2c(N)nccn12 [Acalabrutinib]
- Tolerability (Tolerability in mice): no significant tolerability issues

Structure (SMILES): C=CC(=O)N1CCC[C@@H](n2nc(-c3ccc(Oc4ccccc4)cc3)c3c(N)ncnc32)C1 [Ibrutinib]
- Exposure [1]: 569 ng·h/mL

Structure (SMILES): C=CC(=O)N1CCC(F)(CNc2ncnc(N)c2-c2ccc(Oc3ccccc3)cc2)CC1 [TL-895]
- IC50 (BTK [2]): 1.5 nM
- Effect on ADCC of anti-PD-L1 or anti-EGFR antibodies (concentration–response, maximum cell lysis) (A431 and A549): did not affect the concentration–response or maximum cell lysis when combined with anti-PD-L1 or anti-EGFR antibodies, except at the highest concentrations tested
- IC50 (Txk): 62 nM
- IC50 (BTK [3]; 30 min pre-treatment, anti-IgM stimulation, read-out: IC50, BTK auto-phosphorylation at Y223): 1 to 10 nM
- Phosphorylation of Y551 on the activation loop (BTK [3]; up to highest tested concentration 1 µM): not inhibited
- Sensitivity to TL-895 (HBL-1; HBL-1, mutations in both CD79b and MyD88): sensitive
- GI50 (HBL-1; [8]): 560 nM
- IC50 (HBL-1; [8]): 10.3 µM
- Emax (HBL-1; Homo sapiens, HBL1, HBL-1 (ABC-DLBCL), 72 h, read-out: Max response (GI %)): 89%
- Emax (SU-DHL-2-epst; Homo sapiens, SU-DHL-2-epst (ABC-DLBCL), 72 h, read-out: Max response (GI %)): 2%
- Sensitivity to TL-895 (SU-DHL-2-epst; SU-DHL-2-epst, MyD88 mutation, CD79 wild-type): unresponsive
- Emax (OCI-Ly3; Homo sapiens, OCI-Ly3 (ABC-DLBCL), 72 h, read-out: Max response (GI %)): 39%
- Sensitivity to TL-895 (OCI-Ly3; OCI-Ly3, MyD88 mutation, CD79 wild-type): unresponsive
- GI50 (TMD8; [9]): 10 nM
- IC50 (TMD8; [9]): 10 nM
- Emax (TMD8; Homo sapiens, TMD8 (ABC-DLBCL), 72 h, read-out: Max response (GI %)): 181%
- Sensitivity to TL-895 (TMD8; TMD8, mutations in both CD79b and MyD88): sensitive
- EC50 at 24 h ([4]; HepG2, 24 h): > 50 µM
- EC50 at 72 h ([4]; HepG2, 72 h): > 50 µM
- Cytotoxicity EC50 in primary human hepatocytes relative to IC50 in primary CLL blasts [5]: 32 fold
- EC50 at 24 h [6]: 6.4 µM
- IC50 (BTK [7]): 18.5 nM
